Data: patent publication US9346812B2, “Substituted pyrrolopyrimidine compounds, compositions thereof, and methods of treatment therewith” (Signal Pharmaceutical LLC, priority 2013, dated 2016)

System: CAL51 cell proliferation
Test: Cell Titer Glo Proliferation Assay (CAL51)
Type: cell-based, human
Details: Homo sapiens, CAL-51; CAL51 cell proliferation, 72 h, Cell Titer Glo luminescence; read-out: Act. Level
Outline: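 Viability is measured by CellTiter-Glo luminescence after 72 h of compound exposure. CAL51 cells were seeded in growth medium with 10% FBS and 2 mM glutamine, cultured overnight, then dosed with compound dilutions, vehicle held at 0.2% DMSO.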

Compound | IC50
COc1cc(C(=O)NCCN(C)C)ccc1Nc1nc(OC2CCOCC2)c2c(-c3ccc4nc(C)oc4c3)c[nH]c2n1 [Example 127, N-(2-(dimethylamino)ethyl)-3-methoxy-4-(5-(2-methylbenzo[d]oxazol-6-yl)-4-(tetrahydro-2H-pyran-4-yloxy)-7H-pyrrolo[2,3-d]pyrimidin-2-ylamino)benzamide] | < 100 nM
Cc1nc2ccc(-c3c[nH]c4nc(Nc5ccc(C(=O)N(C)C)cc5C)nc(OC5CCOCC5)c34)cc2[nH]1 [Example 128, N,N,3-trimethyl-4-(5-(2-methyl-1H-benzo[d]imidazol-6-yl)-4-(tetrahydro-2H-pyran-4-yloxy)-7H-pyrrolo[2,3-d]pyrimidin-2-ylamino)benzamide] | < 100 nM
CNC(=O)c1ccc(Nc2nc(OC)c3c(-c4cn[nH]c4)c[nH]c3n2)c(OC)c1 [Example 129, 3-methoxy-4-(4-methoxy-5-(1H-pyrazol-4-yl)-7H-pyrrolo[2,3-d]pyrimidin-2-ylamino)-N-methylbenzamide] | 100 to 400 nM
CNCCNC(=O)c1ccc(Nc2nc(OC3CCOCC3)c3c(-c4ccc5nc(C)oc5c4)c[nH]c3n2)c(OC)c1 [Example 130, 3-methoxy-N-(2-(methylamino)ethyl)-4-(5-(2-methylbenzo[d]oxazol-6-yl)-4-(tetrahydro-2H-pyran-4-yloxy)-7H-pyrrolo [2,3-d]pyrimidin-2-ylamino)benzamide] | 100 to 400 nM
CNC(=O)c1ccc(Nc2nc(OC3CCOCC3)c3c(-c4ccnc(N(C)C)c4)c[nH]c3n2)c(OC)c1 [Example 131, 4-(5-(2-(dimethylamino)pyridin-4-yl)-4-(tetrahydro-2H-pyran-4-yloxy)-7H-pyrrolo[2,3-d]pyrimidin-2-ylamino)-3-methoxy-N-methylbenzamide] | < 100 nM
CNC(=O)c1ccc(Nc2nc(O[C@H]3CCOC3)c3c(-c4ccc5nc(C)oc5c4)c[nH]c3n2)c(C)c1 [Example 133, (S)-N,3-dimethyl-4-(5-(2-methylbenzo[d]oxazol-6-yl)-4-(tetrahydrofuran-3-yloxy)-7H-pyrrolo[2,3-d]pyrimidin-2-ylamino)benzamide] | < 100 nM
CNC(=O)c1ccc(Nc2nc(OC3CCOCC3)c3c(-c4ccc5nc(C)oc5c4C)c[nH]c3n2)c(OC)c1 [Example 135, 4-(5-(2,7-dimethylbenzo[d]oxazol-6-yl)-4-(tetrahydro-2H-pyran-4-yloxy)-7H-pyrrolo[2,3-d]pyrimidin-2-ylamino)-3-methoxy-N-methylbenzamide] | 1000 to 10000 nM
CNC(=O)c1ccc(Nc2nc(OC3CCOCC3)c3c(-c4cc5oc(C)nc5cc4C)c[nH]c3n2)c(OC)c1 [Example 136, 4-(5-(2,5-dimethylbenzo[d]oxazol-6-yl)-4-(tetrahydro-2H-pyran-4-yloxy)-7H-pyrrolo[2,3-d]pyrimidin-2-ylamino)-3-methoxy-N-methylbenzamide] | 1000 to 10000 nM
CNC(=O)c1ccc(Nc2nc(O[C@H]3CC[C@H](O)CC3)c3c(-c4ccc5nc(C)oc5c4)c[nH]c3n2)c(OC)c1 [Example 137, 4-(4-((1r,4r)-4-hydroxycyclo-hexyloxy)-5-(2-methylbenzo[d]oxazol-6-yl)-7H-pyrrolo[2,3-d]pyrimidin-2-ylamino)-3-methoxy-N-methylbenzamide] | < 100 nM
CNCCOc1nc(Nc2ccc(C(=O)NC)cc2OC)nc2[nH]cc(-c3ccc4nc(C)oc4c3)c12 [Example 138, 3-methoxy-N-methyl-4-(4-(2-(methylamino)ethoxy)-5-(2-methylbenzo[d]oxazol-6-yl)-7H-pyrrolo[2,3-d]pyrimidin-2-ylamino)benzamide] | 1000 to 10000 nM
CNC(=O)c1ccc(Nc2nc(OCCOC)c3c(-c4ccc5nc(C)oc5c4)c[nH]c3n2)c(OC)c1 [Example 139, 3-methoxy-4-(4-(2-methoxyethoxy)-5-(2-methylbenzo[d]oxazol-6-yl)-7H-pyrrolo[2,3-d]pyrimidin-2-ylamino)-N-methylbenzamide] | < 100 nM
Cc1cc(C(=O)N(C)C)ccc1Nc1nc(OC2CCOCC2)c2c(-c3ccnc(C#N)c3)c[nH]c2n1 [Example 140, 4-(5-(2-cyanopyridin-4-yl)-4-(tetra-hydro-2H-pyran-4-yloxy)-7H-pyrrolo[2,3-d]pyrimidin-2-ylamino)-N,N,3-trimethylbenzamide] | 100 to 400 nM
CNC(=O)c1ccc(Nc2nc(OC)c3c(-c4ccc(-c5ncc[nH]5)cc4)c[nH]c3n2)c(OC)c1 [Example 141, 4-(5-(4-(1H-imidazol-2-yl)phenyl)-4-methoxy-7H-pyrrolo[2,3-d]pyrimidin-2-ylamino)-3-methoxy-N-methylbenzamide] | 100 to 400 nM
CNC(=O)c1ccc(Nc2nc(OC3CCOCC3)c3c(-c4ccnc(N)c4)c[nH]c3n2)c(OC)c1 [Example 142, 4-(5-(2-aminopyridin-4-yl)-4-(tetra-hydro-2H-pyran-4-yloxy)-7H-pyrrolo[2,3-d]pyrimidin-2-ylamino)-3-methoxy-N-methylbenzamide] | < 100 nM
CNC(=O)c1ccc(Nc2nc(OC3CCOCC3)c3c(-c4ccnc(OC)c4)c[nH]c3n2)c(OC)c1 [Example 143, 3-methoxy-4-(5-(2-methoxypyridin-4-yl)-4-(tetrahydro-2H-pyran-4-yloxy)-7H-pyrrolo[2,3-d]pyrimidin-2-ylamino)-N-methylbenzamide] | < 100 nM
CNC(=O)c1cccc(-c2c[nH]c3nc(Nc4ccc(C(=O)NC)cc4C)nc(OC4CCOCC4)c23)c1 [Example 144, N,3-dimethyl-4-(5-(3-(methyl-carbamoyl)phenyl)-4-(tetrahydro-2H-pyran-4-yloxy)-7H-pyrrolo[2,3-d]pyrimidin-2-ylamino)benzamide] | 1000 to 10000 nM
CNC(=O)c1ccc(Nc2nc(OC3CCOCC3)c3c(-c4ccnc(O)c4)c[nH]c3n2)c(OC)c1 [Example 147, 4-(5-(2-hydroxypyridin-4-yl)-4-(tetrahydro-2H-pyran-4-yloxy)-7H-pyrrolo[2,3-d]pyrimidin-2-ylamino)-3-methoxy-N-methylbenzamide] | 100 to 400 nM
CNC(=O)c1ccc(Nc2nc(OC3CCOCC3)c3c(-c4ccc5nc(C)n(C)c5c4)c[nH]c3n2)c(OC)c1 [Example 148, 4-(5-(1,2-dimethyl-1H-benzo[d]imidazol-6-yl)-4-(tetrahydro-2H-pyran-4-yloxy)-7H-pyrrolo[2,3-d]pyrimidin-2-ylamino)-3-methoxy-N-methylbenzamide] | < 100 nM
CNC(=O)c1cccc(-c2c[nH]c3nc(Nc4ccc(C(=O)NC)cc4C)nc(OC)c23)c1 [Example 149, 4-(4-methoxy-5-(3-(methylcarbamoyl)phenyl)-7H-pyrrolo[2,3-d]pyrimidin-2-ylamino)-N,3-dimethylbenzamide] | 1000 to 10000 nM
CNC(=O)c1ccc(Nc2nc(O[C@H]3CC[C@](C)(O)CC3)c3c(-c4ccc5nc(C)oc5c4)c[nH]c3n2)c(C)c1 [Example 150, 4-(4-((1r,4r)-4-hydroxy-4-methylcyclohexyloxy)-5-(2-methylbenzo[d]oxazol-6-yl)-7H-pyrrolo[2,3-d]pyrimidin-2-ylamino)-N,3-dimethylbenzamide] | < 100 nM
CNC(=O)c1ccc(Nc2nc(O[C@H]3CC[C@@](C)(O)CC3)c3c(-c4ccc5nc(C)oc5c4)c[nH]c3n2)c(C)c1 [Example 151, 4-(4-((1s,4s)-4-hydroxy-4-methylcyclohexyloxy)-5-(2-methylbenzo[d]oxazol-6-yl)-7H-pyrrolo[2,3-d]pyrimidin-2-ylamino)-N,3-dimethylbenzamide] | < 100 nM
CNC(=O)c1ccc(-c2c[nH]c3nc(Nc4ccc(C(=O)NC)cc4C)nc(O[C@H]4CCOC4)c23)cc1 [Example 153, (S)-N,3-dimethyl-4-(5-(4-(methylcarbamoyl)phenyl)-4-(tetrahydrofuran-3-yloxy)-7H-pyrrolo[2,3-d]pyrimidin-2-ylamino)benzamide] | < 100 nM
CNC(=O)c1ccc(Nc2nc(OC3CCOCC3)c3c(-c4cncnc4)c[nH]c3n2)c(OC)c1 [Example 154, 3-methoxy-N-methyl-4-(5-(pyrimidin-5-yl)-4-(tetrahydro-2H-pyran-4-yloxy)-7H-pyrrolo[2,3-d]pyrimidin-2-ylamino) benzamide] | 100 to 400 nM
CNC(=O)c1ccc(Nc2nc(OC3CCOCC3)c3c(-c4ccnc(NC)c4)c[nH]c3n2)c(OC)c1 [Example 155, 3-methoxy-N-methyl-4-(5-(2-(methylamino)pyridin-4-yl)-4-(tetrahydro-2H-pyran-4-yloxy)-7H-pyrrolo[2,3-d]pyrimidin-2-ylamino)benzamide] | < 100 nM
CNC(=O)c1ccc(Nc2nc(OC)c3c(-c4ccncc4)c[nH]c3n2)c(C)c1 [Example 156, 4-(4-methoxy-5-(pyridin-4-yl)-7H-pyrrolo[2,3-d]pyrimidin-2-ylamino)-N,3-dimethylbenzamide] | 100 to 400 nM
COc1nc(Nc2ccc(C(=O)N(C)C)cc2Cl)nc2[nH]cc(-c3ccncc3)c12 [Example 157, 3-chloro-4-(4-methoxy-5-(pyridin-4-yl)-7H-pyrrolo[2,3-d]pyrimidin-2-ylamino)-N,N-dimethylbenzamide] | 100 to 400 nM
CNC(=O)c1ccc(Nc2nc(OC3CCOCC3)c3c(-c4ccc(S(C)(=O)=O)cc4)c[nH]c3n2)c(C)c1 [Example 158, N,3-dimethyl-4-(5-(4-(methylsulfonyl)phenyl)-4-(tetrahydro-2H-pyran-4-yloxy)-7H-pyrrolo[2,3-d]pyrimidin-2-ylamino)benzamide] | 400 to 1000 nM
CNC(=O)c1ccc(-c2c[nH]c3nc(Nc4ccc(C(=O)N(C)C)cc4C)nc(OC4CCOCC4)c23)cn1 [Example 159, 5-(2-(4-(dimethylcarbamoyl)-2-methylphenylamino)-4-(tetrahydro-2H-pyran-4-yloxy)-7H-pyrrolo[2,3-d]pyrimidin-5-yl)-N-methylpicolinamide] | < 100 nM
COc1cc(C(=O)NCCO)ccc1Nc1nc(OC(C)C)c2c(-c3ccc4nc(C)oc4c3)c[nH]c2n1 [Example 160, N-(2-hydroxyethyl)-4-(4-isopropoxy-5-(2-methylbenzo[d]oxazol-6-yl)-7H-pyrrolo[2,3-d]pyrimidin-2-ylamino)-3-methoxybenzamide] | < 100 nM
